Experimental data taken from US9309225B2, “N-((1-benzyl-1H-1,2,3-triazol-4-yl)methyl)arylamide compounds as potential anticancer agents and a process for the preparation thereof” (COUNCIL OF SCIENTIFIC & INDUSTRIAL RESEARCH, priority 2013, dated 2016).

Assays:
[1] = test system: RXF 393; assay: NCI sixty human tumor cell line screen, Renal panel; format: cell-based; conditions: RXF 393, Renal, NCI protocol
Method: (§1) The in vitro anticancer activity studies for these N-((1-benzyl-1H-1,2,3-triazol-4-yl)methyl) arylamide analogues were carried out at the National Cancer Institute, USA.
(§2) The N-((1-benzyl-1H-1,2,3-triazol-4-yl)methyl)arylamide analogues have been tested at NCI, USA, against sixty human tumor cell lines derived from nine cancer types (leukemia, non-small cell lung cancer, colon cancer, CNS cancer, melanoma cancer, ovarian cancer, renal cancer, prostate cancer and breast cancer). For these compounds results are expressed as growth inhibition (GI50) values as per NCI protocol.

[2] = test system: ACHN; assay: as above; format: cell-based; conditions: NCI protocol
Method: as §1, §2

[3] = test system: A498; assay: as above; format: cell-based; conditions: NCI protocol
Method: as §1, §2

[4] = test system: CAKI-1; assay: as above; format: cell-based; conditions: CAKI-1, Renal, NCI protocol
Method: as §1, §2

[5] = test system: TK-10; assay: as above; format: cell-based; conditions: TK-10, Renal, NCI protocol
Method: as §1, §2

[6] = test system: UO-31; assay: as above; format: cell-based; conditions: UO-31, Renal, NCI protocol
Method: as §1, §2

[7] = test system: SN12C; assay: as above; format: cell-based; conditions: NCI protocol
Method: as §1, §2

[8] = test system: SF-295; assay: NCI sixty human tumor cell line screen, CNS panel; format: cell-based; conditions: SF-295, CNS, NCI protocol
Method: as §1, §2

[9] = test system: SF-539; assay: NCI sixty human tumor cell line screen, CNS panel; format: cell-based; conditions: SF-539, CNS, NCI protocol
Method: as §1, §2

[10] = test system: U251; assay: NCI sixty human tumor cell line screen, CNS panel; format: cell-based; conditions: U-251, NCI protocol
Method: as §1, §2

[11] = test system: SF-268; assay: NCI sixty human tumor cell line screen, CNS panel; format: cell-based; conditions: SF-268, CNS, NCI protocol
Method: as §1, §2

[12] = test system: SNB-19; assay: NCI sixty human tumor cell line screen, CNS panel; format: cell-based; conditions: SNB-19, CNS, NCI protocol
Method: as §1, §2

[13] = test system: SNB-75; assay: NCI sixty human tumor cell line screen, CNS panel; format: cell-based; conditions: SNB-75, CNS, NCI protocol
Method: as §1, §2

[14] = test system: MDA-MB-468; assay: NCI sixty human tumor cell line screen, Breast panel; format: cell-based; conditions: MDA-MB-468, Breast, NCI protocol
Method: as §1, §2

[15] = test system: T-47D; assay: as above; format: cell-based; conditions: T47D, NCI protocol
Method: as §1, §2

[16] = test system: BT-549; assay: as above; format: cell-based; conditions: BT-549, Breast, NCI protocol
Method: as §1, §2

[17] = test system: MDA-MB-31/ATCC; assay: as above; format: cell-based; conditions: NCI protocol
Method: as §1, §2

[18] = test system: M14; assay: NCI sixty human tumor cell line screen, Melanoma panel; format: cell-based; conditions: NCI protocol
Method: as §1, §2

[19] = test system: SK-MEL-28; assay: as above; format: cell-based; conditions: SK-MEL-28, Melanoma, NCI protocol
Method: as §1, §2

[20] = test system: MDA-MB-435; assay: as above; format: cell-based; conditions: MDA-MB-435, Melanoma, NCI protocol
Method: as §1, §2

[21] = test system: UACC-62; assay: as above; format: cell-based; conditions: UACC-62, Melanoma, NCI protocol
Method: as §1, §2

[22] = test system: SK-MEL-2; assay: as above; format: cell-based; conditions: SK-MEL-2, Melanoma, NCI protocol
Method: as §1, §2

[23] = test system: LOX IMVI; assay: as above; format: cell-based; conditions: NCI protocol
Method: as §1, §2

[24] = test system: SK-MEL-5; assay: as above; format: cell-based; conditions: SK-MEL-5, Melanoma, NCI protocol
Method: as §1, §2

[25] = test system: SW-620; assay: NCI sixty human tumor cell line screen, Colon panel; format: cell-based; conditions: SW-620, Colon, NCI protocol
Method: as §1, §2

[26] = test system: HCT-116; assay: as above; format: cell-based; conditions: HCT-116, Colon, NCI protocol
Method: as §1, §2

[27] = test system: HT29; assay: as above; format: cell-based; conditions: HT-29, NCI protocol
Method: as §1, §2

[28] = test system: KM12; assay: as above; format: cell-based; conditions: NCI protocol
Method: as §1, §2

[29] = test system: COLO 205; assay: as above; format: cell-based; conditions: COLO 205, Colon, NCI protocol
Method: as §1, §2

[30] = test system: OVCAR-8; assay: NCI sixty human tumor cell line screen, Ovarian panel; format: cell-based; conditions: OVCAR-8, Ovarian, NCI protocol
Method: as §1, §2

[31] = test system: OVCAR-3; assay: as above; format: cell-based; conditions: OVCAR-3, Ovarian, NCI protocol
Method: as §1, §2

[32] = test system: OVCAR-4; assay: as above; format: cell-based; conditions: OVCAR-4, Ovarian, NCI protocol
Method: as §1, §2

[33] = test system: SK-OV-3; assay: as above; format: cell-based; conditions: SK-OV-3, Ovarian, NCI protocol
Method: as §1, §2

[34] = test system: NCI/ADR-RES; assay: as above; format: cell-based; conditions: NCI protocol
Method: as §1, §2

[35] = test system: NCI-H522; assay: NCI sixty human tumor cell line screen, Non-small-cell-lung panel; format: cell-based; conditions: NCI protocol
Method: as §1, §2

[36] = test system: NCI-H460; assay: as above; format: cell-based; conditions: NCI protocol
Method: as §1, §2

[37] = test system: A549/ATCC; assay: as above; format: cell-based; conditions: NCI protocol
Method: as §1, §2

[38] = test system: EKVX; assay: as above; format: cell-based; conditions: NCI protocol
Method: as §1, §2

[39] = test system: HOP-62; assay: as above; format: cell-based; conditions: HOP-62, Non-small-cell-lung, NCI protocol
Method: as §1, §2

[40] = test system: NCI-H226; assay: as above; format: cell-based; conditions: NCI protocol
Method: as §1, §2

[41] = test system: DU-145; assay: NCI sixty human tumor cell line screen, Prostate panel; format: cell-based; conditions: DU-145, Prostate, NCI protocol
Method: as §1, §2

[42] = test system: PC-3; assay: as above; format: cell-based; conditions: PC-3, Prostate, NCI protocol
Method: as §1, §2

`COc1ccc(Nc2ncccc2C(=O)NCc2cn(Cc3cccc(Oc4ccccc4)c3)nn2)cc1` [Compound 1e, 2-(4-Methoxyphenylamino)-N-((1-(3-phenoxybenzyl)-1H-1,2,3-triazol-4-yl)methyl) nicotinamide] gave a GI50 [1] of 3.77 µM, a GI50 [2] of 6.9 µM and a GI50 [3] of 4.18 µM. For the same molecule, the GI50 [4] was 6.3 µM, the GI50 [5] was 5.16 µM and the GI50 [6] was 5.25 µM. For the same molecule, the GI50 [7] was 7.41 µM, the GI50 [8] was 2.94 µM and the GI50 [9] was 2.79 µM. For the same molecule, the GI50 [10] was 3.91 µM, the GI50 [11] was 4.59 µM and the GI50 [12] was 3.55 µM. The GI50 [13] was 3.09 µM, the GI50 [14] was 2.42 µM and the GI50 [15] was 4.68 µM. For the same molecule, the GI50 [16] was 7.16 µM, the GI50 [17] was 5.35 µM and the GI50 [18] was 3.15 µM. It also gave a GI50 [19] of 3.88 µM, a GI50 [20] of 1.71 µM and a GI50 [21] of 3.13 µM. The GI50 [22] was 3.66 µM, the GI50 [23] was 3.6 µM and the GI50 [24] was 2.9 µM. The melting point was 95 to 98 °C, the GI50 [25] was 3.86 µM and the GI50 [26] was 4.17 µM. For the same molecule, the GI50 [27] was 3.66 µM, the GI50 [28] was 3.43 µM and the GI50 [29] was 2.86 µM. The GI50 [30] was 5.96 µM, the GI50 [31] was 3.69 µM and the GI50 [32] was 5.42 µM. It also gave a GI50 [33] of 4.33 µM, a GI50 [34] of 3.21 µM and a GI50 [35] of 2.13 µM. The GI50 [36] was 3.52 µM, the GI50 [37] was 3.44 µM and the GI50 [38] was 4.16 µM. The GI50 [39] was 5.07 µM, the GI50 [40] was 3.92 µM and the GI50 [41] was 1.05 µM. It also gave a GI50 [42] of 4.74 µM.

Work on `O=C(NCc1cn(Cc2cccc(Oc3ccccc3)c2)nn1)c1cccnc1NCc1ccc(Cl)cc1` [Compound 1k, 2-(4-Chlorobenzylamino)-N-((1-(3-phenoxybenzyl)-1H-1,2,3-triazol-4-yl)methyl) nicotinamide] yielded a GI50 [1] of 2.19 µM, a GI50 [2] of 4.03 µM and a GI50 [3] of 2.12 µM. It also gave a GI50 [4] of 4.36 µM, a GI50 [5] of 3.7 µM and a GI50 [6] of 3 µM. It also gave a GI50 [7] of 3.44 µM, a GI50 [8] of 2.8 µM and a GI50 [9] of 2.24 µM. It also gave a GI50 [10] of 2.66 µM, a GI50 [11] of 4.82 µM and a GI50 [12] of 3.91 µM. It also gave a GI50 [13] of 2.02 µM, a GI50 [14] of 3.44 µM and a GI50 [15] of 3.2 µM. The GI50 [16] was 2.72 µM, the GI50 [17] was 2.29 µM and the GI50 [18] was 2.49 µM. It also gave a GI50 [19] of 2.95 µM, a GI50 [20] of 2.33 µM and a GI50 [21] of 2.08 µM. It also gave a GI50 [22] of 4.44 µM, a GI50 [23] of 3.9 µM and a GI50 [24] of 2.53 µM. It also gave a melting point of 209 to 211 °C, a GI50 [25] of 4.04 µM and a GI50 [26] of 3.18 µM. For the same molecule, the GI50 [27] was 2.96 µM, the GI50 [28] was 3.62 µM and the GI50 [29] was 2.18 µM. For the same molecule, the GI50 [30] was 3.63 µM, the GI50 [31] was 3.48 µM and the GI50 [32] was 3.37 µM. The GI50 [33] was 3.32 µM, the GI50 [34] was 2.86 µM and the GI50 [35] was 2.18 µM. The GI50 [36] was 2.85 µM, the GI50 [37] was 3.21 µM and the GI50 [38] was 3.65 µM. For the same molecule, the GI50 [39] was 5.69 µM, the GI50 [40] was 3.66 µM and the GI50 [41] was 4 µM. For the same molecule, the GI50 [42] was 2.96 µM.

Molecule `COc1ccc(Nc2ncccc2C(=O)NCc2cn(Cc3cccc(Oc4ccccc4)c3)nn2)c(OC)c1` [Compound 1g, 2-(2,4-Dimethoxyphenylamino)-N-((1-(3-phenoxybenzyl)-1H-1,2,3-triazol-4-yl)methyl) nicotinamide] has a GI50 [1] of 7.83 µM, a GI50 [2] of 4.83 µM and a GI50 [3] of 1.01 µM. It also gave a GI50 [4] of 1.71 µM, a GI50 [5] of 3.14 µM and a GI50 [6] of 8.06 µM. It also gave a GI50 [7] of 1.71 µM, a GI50 [8] of 0.56 µM and a GI50 [9] of 2.65 µM. For the same molecule, the GI50 [10] was 3.6 µM, the GI50 [11] was 3.88 µM and the GI50 [12] was 3.33 µM. The GI50 [13] was 3.41 µM, the GI50 [14] was 1.46 µM and the GI50 [15] was 4.28 µM. For the same molecule, the GI50 [16] was 3.51 µM, the GI50 [17] was 5.54 µM and the GI50 [18] was 2.13 µM. It also gave a GI50 [19] of 2.6 µM, a GI50 [20] of 0.25 µM and a GI50 [21] of 1.43 µM. It also gave a GI50 [22] of 7.67 µM, a GI50 [23] of 3.01 µM and a GI50 [24] of 0.72 µM. The melting point was 127 to 129 °C, the GI50 [25] was 2.12 µM and the GI50 [26] was 3.08 µM. It also gave a GI50 [27] of 3.26 µM, a GI50 [28] of 1.65 µM and a GI50 [29] of 2.14 µM. The GI50 [30] was 4.1 µM, the GI50 [31] was 1.54 µM and the GI50 [32] was 5.11 µM. The GI50 [33] was 2.59 µM, the GI50 [34] was 2.12 µM and the GI50 [35] was 1.82 µM. For the same molecule, the GI50 [36] was 3.05 µM, the GI50 [37] was 4.15 µM and the GI50 [38] was 5.09 µM. The GI50 [39] was 12.7 µM, the GI50 [40] was 2.24 µM and the GI50 [41] was 3.37 µM. The GI50 [42] was 0.62 µM.
